Assay results as given in US10226463B2, “Fluorouracil glycolate compound for the treatment of warts, molluscum contagiosum” (priority 2012, dated 2019).

Tests used:
[1] = systemic absorption after topical application to the lesion; assay type: in vivo; details: saturation of the lesion
From the text: (§1) Fluorouracil Glycolate is formed by a chemical reaction between fluorouracil and glycolic acid, in an acid-base reaction under the Lowry-Bronsted model in a typical acid-base reaction. The new unique compound when formed is stable at room temperature for approximately one year. The molecular weight of the new compound is 205.72. The magic wart cream formulation, a thick cream resembling peanut butter, has a consistency designed for easy application to the lesions with a toothpick. This is to eliminate any messy, troublesome dribbling as this was a problem encountered early and then overcome on a trial and error basis, resulting in the thicker consistency. By applying the magic wart cream to only the center of the wart, and not to the edges, it focuses the target of the high-sulfur containing, amino acid rich matrix of keratin to where the fluorouracil glycolate can pool. Then it forms a depot within the small socket of the lesion. This dictates the nature of the liberation absorption and distribution the drug delivery system.

[2] = stability of the formed compound at room temperature; assay type: physicochemical
From the text: as §1

## O=C(O)CO.O=c1[nH]cc(F)c(=O)[nH]1 [Fluorouracil Glycolate]
[1]
  systemic absorption: without observed systemic absorption
[2]
  stable at room temperature (duration): approximately one
